In PubChem BioAssay (NCI):
Where “and” joins values, the source holds several entries; their conditions need not be identical. Equal values may be shown once.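 Growth conditions: 96-well plates. Treatment: test compound, 48 hours, 5 concentrations. Analysis: linear interpolation between bracketing concentrations; unreached endpoints set to highest concentration. The concentration for 50% growth inhibition is given as GI50. TGI marks complete inhibition of growth.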

How the values were obtained:
Test in all cases: NCI tumour cell line growth inhibition, 48 h
DLD-1 colon = system: DLD-1 colon
DMS 114 small cell lung = system: DMS 114 small cell lung
XF 498 CNS = system: XF 498 CNS
SNB-78 CNS = system: SNB-78 CNS
LXFL 529 NSCLC = system: LXFL 529 NSCLC
HOP-18 NSCLC = system: HOP-18 NSCLC
KM20L2 colon = system: KM20L2 colon
RXF-631 renal = system: RXF-631 renal
MDA-N = system: MDA-N
SN12K1 renal = system: SN12K1 renal
P388/ADR leukemia = system: P388/ADR leukemia

SMILES | TGI (DLD-1 colon) | TGI (DMS 114 small cell lung) [µM] | TGI (XF 498 CNS) [µM] | TGI (SNB-78 CNS) [µM] | TGI (LXFL 529 NSCLC) | TGI (HOP-18 NSCLC) [µM] | TGI (KM20L2 colon) | TGI (RXF-631 renal) [µM] | further results
CC(C)(CO)N=Cc1ccccc1[O-].CC(C)(CO)N=Cc1ccccc1[O-].[Co+2] | > 100 µM | > 100 | > 100 | > 100 | > 100 µM | > 100 | > 100 µM |  | GI50 (DLD-1 colon): 26.6 µM; GI50 (DMS 114 small cell lung): 18.7 µM; GI50 (XF 498 CNS): > 100 µM; GI50 (SNB-78 CNS): > 100 µM; GI50 (LXFL 529 NSCLC): 19.2 µM; GI50 (HOP-18 NSCLC): 29.4 µM; GI50 (KM20L2 colon): 61.9 µM
Cc1cc([N+](=O)[O-])c(S(=O)(=O)c2ccccc2)c([N+](=O)[O-])c1 | 17 µM | 9.63 | 27.6 | 48.6 | 10.6 µM | 29.6 | 37.3 µM | > 100 | 
COc1cc(O)c(C(C)=O)c(O)c1 |  |  |  |  |  |  |  |  | TGI (MDA-N): > 100 µM
CCCCCCCCCCCCCCCCS(=O)(=O)c1ccc(NN)cc1 |  |  |  |  |  |  |  |  | TGI (MDA-N): > 10 µM
O=C(O)C1C2C=CC(O2)C1C(=O)Nc1ncccn1 (stereo not drawn) |  |  |  |  |  |  |  |  | TGI (MDA-N): > 100 µM
NS(=O)(=O)c1ccc(NC(=O)c2cccn3c(=O)c4ccccc4nc23)cc1 | > 100 µM | > 100 | > 100 | > 100 | > 100 µM | > 100 | > 100 µM | > 100 | 
C=CC1=CC(C)C[C@]1(O)C(=O)OC (stereo partly drawn) |  |  |  | > 100 |  | > 100 | > 100 µM |  | GI50 (DLD-1 colon): > 100 µM; GI50 (DMS 114 small cell lung): > 100 µM; GI50 (XF 498 CNS): > 100 µM; GI50 (RXF-631 renal): > 100 µM; GI50 (LXFL 529 NSCLC): > 100 µM
COC(=O)c1cc2c3c(ccc2[nH]1)N(C(=O)c1cc2c4c(ccc2[nH]1)N(C(=O)c1cc2c5c(ccc2[nH]1)N(C(N)=O)CC5)CC4)CC3 | > 100 µM | 57.3 |  | > 100 |  | > 100 | > 100 µM |  | 
CCCCCCCCCC(=O)Oc1cccc2onc(C)c12 | > 100 µM | > 100 |  | > 100 | > 100 µM | > 100 | > 100 µM | > 100 | 
Cc1ccc(/C=C2\CNC/C(=C\c3ccc(C)cc3)C2=O)cc1 | 1.2 µM and 2.32 µM | 4.98 | 5.16 | > 100 | 2.71 µM and 2.17 µM |  | 3.02 µM and 3.14 µM |  | GI50 (DLD-1 colon): 0.916 µM; GI50 (LXFL 529 NSCLC): 0.819 µM; TGI (MDA-N): 3.53 µM
CC[P+]1(CC)CCCC1 | > 100 µM | > 100 | > 100 | > 100 | > 100 µM | > 100 | > 100 µM |  | 
Cc1cc(NC(=O)NC(=O)c2ccccc2N(C)C)ccc1Oc1ncc(Br)cn1 | > 100 µM |  |  | > 100 | > 100 µM | > 100 | 0.796 µM |  | GI50 (DLD-1 colon): 0.527 µM; GI50 (DMS 114 small cell lung): 0.478 µM; GI50 (XF 498 CNS): 0.894 µM; GI50 (LXFL 529 NSCLC): 0.658 µM; TGI (MDA-N): 0.281 µM
CC1(C)OC(COCCOCCCCCO)C(COCCOCCCCCO)O1 (stereo not drawn) | > 100 µM | > 100 |  | > 100 | > 100 µM | > 100 | > 100 µM | > 100 | 
O=C(O)C1C(C(=O)O)C2(Cl)C(Cl)=C(Cl)C1(Cl)C2(Cl)Cl.[Cd] (stereo not drawn) |  |  |  |  |  |  |  |  | GI50 (MDA-N): 8.5 µM; TGI (MDA-N): 22.6 µM
COc1ccc(/C=C/C(=O)C(C)(C)Br)cc1 |  |  |  |  |  |  |  |  | TGI (MDA-N): 39.4 µM
c1ccc(OCCSCCCCCCCCCCSCCOc2ccccc2)cc1 |  | > 100 |  | > 100 | > 100 µM | > 100 | > 100 µM | > 100 | 
CC1=C(C(=O)CC(=O)C(=O)NC2C3CC4CC(C3)CC2C4)Sc2ccccc2N1 (stereo not drawn) | > 100 µM | > 31.6 | > 100 | > 100 | > 100 µM | > 100 | > 100 µM |  | 
COc1cc([C@H]2c3[nH]c4ccccc4c3C[C@H]3COC(=O)N32)cc(OC)c1O | > 100 µM |  | 43 | > 100 |  | > 100 |  |  | 
COC(=O)C1(F)C(=O)NC(=O)NC1OC (stereo not drawn) | > 100 µM | > 100 | > 100 | > 100 |  | > 100 | > 100 µM |  | 

SMILES | TGI (DLD-1 colon) | TGI (DMS 114 small cell lung) [µM] | TGI (XF 498 CNS) [µM] | TGI (SNB-78 CNS) [µM] | TGI (LXFL 529 NSCLC) | TGI (HOP-18 NSCLC) [µM] | TGI (KM20L2 colon) | TGI (RXF-631 renal) [µM] | further results
O=C(O)[C@@H]1CCCC[C@@H]1C(=O)N(C1CCCCC1)C1CCCCC1 | > 100 µM | > 100 |  | > 100 | > 100 µM |  | > 100 µM | > 100 | 
CCOC1=C2NC(Cc3ccc(F)cc3)=NC2C(=O)c2ccccc21 (stereo not drawn) | > 100 µM | 61.9 |  | > 100 | 77.3 µM |  | > 100 µM | > 100 | 
C/C(=N/O)c1ccc2c(c1)C(=NO)c1cc(/C(C)=N/O)ccc1-2 | 52.8 µM | 53.7 | 36.2 | 47.9 | 29 µM | 27.4 | 32.3 µM |  | 
NC(=O)C(=O)n1ncc(Cl)c(Cl)c1=O | 47.7 µM | 36.6 | 31.6 | 49.8 | 29 µM | 35.1 | > 90.8 µM |  | TGI (MDA-N): > 100 µM
CC(=O)OCCC(O[Si](c1ccccc1)(c1ccccc1)C(C)(C)C)C(C)(C)O (stereo not drawn) |  | 53.6 | 96.8 | > 100 | > 100 µM | 91.4 | > 100 µM | > 100 | 
CC(=O)[CH-]C(=O)c1ccccc1.CC(=O)[CH-]C(=O)c1ccccc1.[CH2-]CCC.[CH2-]CCC.[Sn+4] |  |  |  |  | 0.627 µM |  | 3.94 µM |  | GI50 (LXFL 529 NSCLC): 0.198 µM; GI50 (KM20L2 colon): 1.99 µM
O=[N+]([O-])C1C2C=CC(C2)[C@H]1c1ccc(Cl)cc1Cl (stereo partly drawn) | > 100 µM |  | > 100 | > 100 | > 100 µM |  |  |  | 
NC(=O)c1c[se]c(C2OC(COP(=O)(O)CP(=O)(O)OCC3OC(n4cnc5c(N)ncnc54)C(O)C3O)C(O)C2O)n1 (stereo not drawn) | > 100 µM | > 100 | > 100 | > 100 | > 100 µM | > 100 | > 100 µM |  | 
COc1ccc(C2NCCc3c2[nH]c2ccccc32)cc1 (stereo not drawn) | > 100 µM |  | > 100 |  | > 100 µM | > 100 | > 100 µM | > 100 | 
O=C1C(c2ccccc2)=C(c2ccccc2)[C@H](c2ccccc2)[C@]1(Cc1nnn(-c2ccc([N+](=O)[O-])cc2)c1N1CCOCC1)c1ccccc1 | > 37.5 µM | > 37.5 | 26.5 | > 37.5 | > 37.5 µM | > 37.5 | > 37.5 µM | > 37.5 | 
COc1nc2c(c(O)c(C)c(=O)n2OC2OC(COC(C)=O)C(OC(C)=O)C(OC(C)=O)C2OC(C)=O)c(=O)n1C (stereo not drawn) | > 100 µM | > 100 | > 100 | > 100 | > 100 µM |  | > 100 µM | > 100 | 
CC(C)(C)[Si](C)(C)OCC1OC(n2cnc3c(N)ncnc32)C(O)C1O (stereo not drawn) |  |  |  |  |  |  |  |  | TGI (MDA-N): > 100 µM
COc1ccc2[nH]c3c(=O)[nH]ncc3c2c1 | > 100 µM | > 100 |  | > 100 | > 100 µM | > 100 |  |  | 
COc1ccc(CC2=NCCc3cc(OC)c(OC)cc32)cc1Br | > 100 µM | 48.3 | 53.1 | > 100 | > 100 µM | > 100 | 99.3 µM |  | 
CC[C@@]1(O)C(=O)OCc2c1cc1n(c2=O)Cc2cc3c(N)cccc3nc2-1 | > 51.7 µM | 0.121 | 1.05 | > 100 | 2.98 µM | 7.64 | 4.02 µM | 1.69 | TGI (SN12K1 renal): 1.34 µM; GI50 (MDA-N): 0.333 µM; TGI (MDA-N): > 33.8 µM; TGI (P388/ADR leukemia): 0.375 µM
COc1cc2cccc(N=Cc3c(Br)ccc(OC)c3OC(C)C)c2cc1OC | 82.2 µM | 63.5 | > 100 | > 100 | > 100 µM |  | > 100 µM |  | 
CC(C)(C)c1cc(CCC(=O)Nc2ccc(Cl)cc2Cl)nc(N)n1 | > 100 µM | > 100 |  | > 100 | > 100 µM | > 100 | > 100 µM | > 100 | 
Cc1ccccc1NC(=O)C(=O)CC(=O)c1ccc([N+](=O)[O-])cc1 | > 100 µM | > 100 | > 100 | > 100 | > 100 µM | > 100 | > 100 µM | > 100 | 
